From US20230173042A1, “METHODS OF TREATMENT WITH ASPARAGINASE” (JAZZ PHARMACEUTICALS IRELAND LTD., priority 2017, published 2023)

How the values were obtained:
Format in all cases: cell-based
AML = assay: SynergyScreen of Pegcrisantaspase or Oncaspar with standard of care agents; conditions: agent combined with Pegcrisantaspase (FIG. 13A) or Oncaspar (FIG. 13B)
Text: (§1) The special volcano plot of FIG. 9 relates compound sensitivity (as measured by ^10logIC50) to the presence of cancer hotspot mutations. […] The hotspot mutations were derived from statistical analyses of the recurrence patterns of mutations and copy number alterations in patients through separate studies. Axes and statistical analyses are identical to the volcano plot of FIG. 8. The cutoff p-level for significance is 0.32. […] Effect20 For determination of the effect of the compound on the activity of other anti-cancer agents in SynergyScreen™ experiments, a low, fixed concentration is used, corresponding to the concentration at which cell growth is inhibited by 20%. This concentration is determined using the dose-response curves of the single compounds. The concentration is the value on the x-as, corresponding to 80% viability of untreated at the y-axis.
(§2) See the tables depicted in FIG. 13A-FIG. 13B. Grey shading indicates synergistic activity. Light grey shading indicates one experiment and dark grey indicates two experiments. […] Example 5: mPEG-r-crisantaspase conjugates (Pegcrisantaspases) was tested in combination with ABT-737 against HL-60 cell line.

DLBCL = assay: as above; conditions: agent combined with Pegcrisantaspase (FIG. 13A) or Oncaspar (FIG. 13B)
Text: as §1, §2

HL-60 cell line = assay: Combination (synergy) cell proliferation assay with pegcrisantaspase; conditions: for conclusion (synergy): anti-cancer agent in combination with pegcrisantaspase, HL-60 (AML)
Procedure: (§3) Plate preparation. The stocks of the mixtures and single agents were diluted in DMSO or 0.9% sodium chloride to generate a 7-points dose-response series. After further 31.6 times dilution in 20 mM sterile Hepes buffer pH 7.4 (reference compounds) or medium (pegcrisantaspase), 5 μl of pegcrisantaspase solution, and 5 μl of reference compound was added to 40 μl pre-plated cells in duplicate in a 384-well assay plate. The final DMSO concentration during incubation was 0.4% in all wells.
(§4) Cell proliferation assay. A cell assay stock was thawed and diluted in appropriate medium and dispensed in a 384-well plate, depending on the cell line used, at a concentration of 800-3200 cells per well in […]: i.e., DB: 800 cells per well; RL: 1000 cells per well; MV-4-11: 1600 cells per well; KG-1, HL-60 and HT 3200 cells per well. For each used cell line the cell density was optimized previously. The margins of the plate were filled with phosphate-buffered saline. Plated cells were incubated in a humidified atmosphere of 5% CO2 at 37° C. After 24 hours, 5 μl of pegcrisantaspase solution, and 5 μl of reference compound was added, and plates were further incubated for another 72 hours. After 72 hours, plates were cooled in 30 minutes to room temperature and 25 μl of ATPlite 1Step™ (PerkinElmer) solution was added to each well, and subsequently shaken for 2 minutes. After 5 minutes of incubation in the dark at room temperature, the luminescence was recorded on an Envision multimode reader (PerkinElmer).
(§5) Controls: t=0 signal. On a parallel plate, 40 μl cells were dispensed in quadruplicate and incubated in a humidified atmosphere of 5% CO2 at 37° C. After 24 hours, plates were cooled to room temperature in 30 minutes. 5 μl DMSO-containing Hepes buffer, 5 μl 0.9% sodium chloride-containing medium and 25 μl ATPlite 1Step™ solution were added and subsequently mixed for 2 minutes. Luminescence was measured after 10 minute incubation (=luminescencet=0) in the dark.
(§6) Cell growth control. The cellular doubling times of all cell lines are calculated from the t=0 hours and t=end growth signals of the untreated cells. If the doubling time is out of specification (0.5-2.0 times deviating from historic average) the assay is invalidated.
(§7) Maximum signals. On each 384-well plate, the maximum luminescence was recorded after incubation for 72 hours without compound in the presence of 0.4% DMSO. All equivalent wells (usually 14) were averaged. This average is defined as: luminescenceuntreated,t=72h. Dose response curves. Accurate single agent IC50s are needed for combination analysis. For each single agent its dose-response signal was fitted by a 4-parameter logistics curve using XL-fit 5 (IDBS software):
(§8) luminescence=bottom+(top-bottom)/(1+10^(logIC50−log[cpd])−hill))
(§9) [cpd] is the compound concentration tested. hill is the Hill-coefficient. Bottom and top are the asymptotic minimum and maximum of the curve. Combination Index (CI) determination. The CI is one of the most widely used quantitative indications of synergy. The CI evaluates the concentrations needed to achieve a fixed-effect. A CI of below 1 indicates synergy.
(§10) CI is defined for a certain percentage cell viability (V), which is the signal related to a non-exposed control: V=100%×luminescencetreated,t=72h/luminescenceuntreated,t=72h. The concentrations of the two compounds cpd1 and cpd2 needed to reach a certain percentage cell viability V in combination are then compared to the concentrations needed as single agents:
(§11) IC50,cpd1 would signify the IC50 of cpd1 alone. The CI is labelled by %-effect, to follow conventions, so CI75 signifies the CI at 25% viability Curve shift analysis. This analysis provides a visual confirmation of synergy^1. The concentrations of the mixtures of compounds 1 and 2 (cpd1 and cpd2), and the single agents, were expressed in terms of IC50 equivalents (in ‘units’ of IC50):
(§12) The dose-response signal was fitted by a 4-parameter logistics curve using XL-fit 5 (IDBS software)

KG-1 = assay: as above; conditions: anti-cancer agent in combination with pegcrisantaspase; KG-1 (AML)
Procedure: as §3, §4, §5, §6, §7, §8, §9, §10, §11, §12

DB = assay: as above; conditions: anti-cancer agent in combination with pegcrisantaspase; DB (DLBCL)
Procedure: as §3, §4, §5, §6, §7, §8, §9, §10, §11, §12

RL = assay: as above; conditions: anti-cancer agent in combination with pegcrisantaspase; RL (DLBCL)
Procedure: as §3, §4, §5, §6, §7, §8, §9, §10, §11, §12

HT = assay: as above; conditions: anti-cancer agent in combination with pegcrisantaspase; HT (DLBCL)
Procedure: as §3, §4, §5, §6, §7, §8, §9, §10, §11, §12

various cell lines = assay: Pegcrisantaspase in combination with other compounds (Example 4, FIG. 2); conditions: compound in combination with Pegcrisantaspase

IC50 (HL-60 cell line; Homo sapiens, single agents, dose-response curves of FIG. 3, HL-60) | IC50 (HL-60 cell line; Homo sapiens, therapeutic as single agent, HL-60, 72 hours) | SMILES | effect in AML when used with Pegcrisantaspase or Oncaspar (AML) | effect in DLBCL when used with Pegcrisantaspase or Oncaspar (DLBCL) | conclusion (synergy) (HL-60 cell line) | conclusion (synergy) (KG-1) | conclusion (synergy) (DB) | conclusion (synergy) (RL) | conclusion (synergy) (HT) | potentiation of the effect by Pegcrisantaspase (various cell lines) | Emax (HL-60 cell line; Homo sapiens, single agents, dose-response curves of FIG. 3, HL-60, read-out: maximal effect)
 |  | Cn1c(=O)n(-c2ccc(C(C)(C)C#N)cc2)c2c3cc(-c4cnc5ccccc5c4)ccc3ncc21 [dactolisib] | increased effect | increased effect | synergy (CI < 1.0: synergy) | strong synergy (CI < 0.3: strong synergy) |  |  |  |  | 
 |  | CC1(C)CCC(CN2CCN(c3ccc(C(=O)NS(=O)(=O)c4ccc(NCC5CCOCC5)c([N+](=O)[O-])c4)c(Oc4cnc5[nH]ccc5c4)c3)CC2)=C(c2ccc(Cl)cc2)C1 [venetoclax] |  |  | strong synergy (CI < 0.3: strong synergy) | strong synergy (CI < 0.3: strong synergy) | synergy (CI < 1.0: synergy) | synergy (CI < 1.0: synergy) | no synergy (CI = 1.0: no synergy) |  | 
835 nM | 1210 nM | CN(C)CC[C@H](CSc1ccccc1)Nc1ccc(S(=O)(=O)NC(=O)c2ccc(N3CCN(Cc4ccccc4-c4ccc(Cl)cc4)CC3)cc2)cc1[N+](=O)[O-] [ABT-737] | increased effect | increased effect | strong synergy (CI < 0.3: strong synergy) | strong synergy (CI < 0.3: strong synergy) | synergy (CI < 1.0: synergy) | synergy (CI < 1.0: synergy) | synergy (CI < 1.0: synergy) | synergy | 67%
 |  | C[C@]12C=CC(=O)C=C1CC[C@@H]1[C@@H]2[C@@H](O)C[C@@]2(C)[C@H]1CC[C@]2(O)C(=O)CO [prednisolone] |  | increased effect |  |  | no synergy (CI = 1.0: no synergy) | synergy (CI < 1.0: synergy) |  |  | 
 |  | Nc1ccn([C@@H]2O[C@H](CO)[C@@H](O)[C@@H]2O)c(=O)n1 [cytarabine] | increased effect |  |  |  |  |  |  | synergy | 
 |  | CC(C)C[C@H](NC(=O)[C@H](CCc1ccccc1)NC(=O)CN1CCOCC1)C(=O)N[C@@H](Cc1ccccc1)C(=O)N[C@@H](CC(C)C)C(=O)[C@@]1(C)CO1 [carfilzomib] | increased effect | increased effect | antagonism | synergy (CI < 1.0: synergy) | synergy (CI < 1.0: synergy) | synergy (CI < 1.0: synergy) | no synergy/antagonism |  | 
